Measurements published in US11155517B2, “4-substituted phenylamine derivatives and their use to protect crops by fighting undesired phytopathogenic micoorganisms” (PI INDUSTRIES LTD., priority 2016, dated 2021).

What was measured:
Format in all cases: cell-based
[1] = test system: Pyricularia oryzae; experiment: microbe, parasite or virus in culture; details: 168 h, read-out: % control compared to the untreated check (radial growth)
[2] = test system: Rhizoctonia solani; experiment: Rhizoctonia solani (rice sheath blight/potato black scurf) in vitro test, radial growth on Potato Dextrose Agar; details: 168 h, 300 ppm, seven days, 25° C., read-out: % control compared to the untreated check (radial growth)
[3] = test system: Botrytis cinerea; experiment: Botrytis cinerea (gray mold) in vitro test, radial growth on Potato Dextrose Agar; details: 168 h, 300 ppm, seven days, 22° C., read-out: % (control) compared to the untreated check (radial growth)
[4] = test system: Alternaria solani; experiment: Alternaria solani (early blight of tomato/potato) in vitro test, radial growth on Potato Dextrose Agar; details: 168 h, 300 ppm, seven days, 25° C., read-out: % control compared to the untreated check (radial growth)
[5] = test system: Colletotrichum capsici; experiment: Colletotrichum capsici (anthracnose) in vitro test, radial growth on Potato Dextrose Agar; details: Colletotrichum truncatum, 168 h; 300 ppm; seven days, 25° C.; read-out: % control compared to the untreated check (radial growth)
[6] = test system: Septoria lycopersici; experiment: Septoria lycopersici (leaf spot of tomato) in vitro test, radial growth on Potato Dextrose Agar; details: 168 h, seven days, 25° C., read-out: % control compared to the untreated check (radial growth)
[7] = test system: Fusarium culmorum; experiment: Fusarium culmorum (foot rot of cereals) in vitro test, radial growth on Potato Dextrose Agar; details: Fusarium culmorum, 168 h, read-out: % control compared to the untreated check (radial growth)

| Structure (SMILES) | inhibition of growth at 300 ppm [1] [%] | inhibition of growth at 300 ppm [2] [%] | inhibition of growth at 300 ppm [3] [%] | inhibition of growth at 300 ppm [4] [%] | inhibition of growth at 300 ppm [5] [%] | inhibition of growth at 300 ppm [6] [%] | inhibition of growth at 300 ppm [7] [%] |
| --- | --- | --- | --- | --- | --- | --- | --- |
| CCN(C)C=Nc1cc(C)c(Cc2ccc(C(F)(F)F)c(F)c2)cc1C [Compound 158, N-ethyl-N′-(4-(3-fluoro-4-(trifluoromethyl)benzyl)-2,5-dimethylphenyl)-N-methylformimidamide] | > 75 | > 80 | > 80 | > 75 | > 80 | > 70 | 75 |
| CCN(C)C=Nc1cc(C)c(Cc2cc(C(F)(F)F)ccc2Cl)cc1C [Compound 159, N′-(4-(2-chloro-5-(trifluoromethyl)benzyl)-2,5-dimethylphenyl)-N-ethyl-N-methylformimidamide] | > 75 | > 80 | > 80 | > 75 | > 80 | > 70 | 75 |
| CCN(C)C=Nc1cc(C)c(Cc2ccc(Cl)cc2Cl)cc1C [Compound 162, N′-(4-(2,4-dichlorobenzyl)-2,5-dimethylphenyl)-N-ethyl-N-methylformimidamide] | > 75 | > 80 | > 80 | > 75 | > 80 | > 70 | 75 |
| CCN(C)C=Nc1cc(C)c(Cc2cc(F)ccc2C)cc1Cl [Compound 165, N′-(2-chloro-4-(5-fluoro-2-methylbenzyl)-5-methylphenyl)-N-ethyl-N-methylformimidamide] | > 75 | > 80 | > 80 | > 75 | > 80 | > 70 | 75 |
| CCN(C)C=Nc1cc(C)c(Cc2ccc(F)cc2C)cc1Cl [Compound 167, N′-(2-chloro-4-(4-fluoro-2-methylbenzyl)-5-methylphenyl)-N-ethyl-N-methylformimidamide] | > 75 | > 80 | > 80 | > 75 | > 80 | > 70 | 75 |
| CCN(C)C=Nc1cc(C)c(Cc2cc(F)cc(OC)c2)cc1Cl [Compound 169, N′-(2-chloro-4-(3-fluoro-5-methoxybenzyl)-5-methylphenyl)-N-ethyl-N-methylformimidamide] | > 75 | > 80 | > 80 | > 75 | > 80 | > 70 | 75 |
| CCN(C)C=Nc1cc(F)c(Cc2cccc(C)c2)cc1C [Compound 171, N-ethyl-N′-(5-fluoro-2-methyl-4-(3-methylbenzyl)phenyl)-N-methylformimidamide] | > 75 | > 80 | > 80 | > 75 | > 80 | > 70 | 75 |
| CCN(C)C=Nc1cc(F)c(Cc2cccc(Cl)c2)cc1C [Compound 173, N′-(4-(3-chlorobenzyl)-5-fluoro-2-methylphenyl)-N-ethyl-N-methylformimidamide] | > 75 | > 80 | > 80 | > 75 | > 80 | > 70 | 75 |
| CCN(C)C=Nc1cc(F)c(Cc2ccccc2F)cc1C [Compound 185, N-ethyl-N′-(5-fluoro-4-(2-fluorobenzyl)-2-methylphenyl)-N-methylformimidamide] | > 75 | > 80 | > 80 | > 75 | > 80 | > 70 | 75 |
| CCN(C)C=Nc1cc(F)c(Cc2ccccc2C)cc1C [Compound 186, N-ethyl-N′-(5-fluoro-2-methyl-4-(2-methylbenzyl)phenyl)-N-methylformimidamide] | > 75 | > 80 | > 80 | > 75 | > 80 | > 70 | 75 |
| CCN(C)C=Nc1cc(F)c(Cc2cccc(C(F)(F)F)c2)cc1C [Compound 196, N-ethyl-N′-(5-fluoro-2-methyl-4-(3-(trifluoromethyl)benzyl)phenyl)-N-methylformimidamide] | > 75 | > 80 | > 80 | > 75 | > 80 | > 70 | 75 |
| CCN(C)C=Nc1cc(C)c(Cc2cccc(F)c2)cc1C1CC1 [Compound 197, N′-(2-cyclopropyl-4-(3-fluorobenzyl)-5-methylphenyl)-N-ethyl-N-methylformimidamide] | > 75 | > 80 | > 80 | > 75 | > 80 | > 70 | 75 |
| CCN(C)C=Nc1cc(C)c(Cc2cccc(C)c2)cc1C1CC1 [Compound 198, N′-(2-cyclopropyl-5-methyl-4-(3-methylbenzyl)phenyl)-N-ethyl-N-methylformimidamide] | > 75 | > 80 | > 80 | > 75 | > 80 | > 70 | 75 |
| CCN(C)C=Nc1cc(C)c(Cc2cccc(Cl)c2)cc1C1CC1 [Compound 199, N′-(4-(3-chlorobenzyl)-2-cyclopropyl-5-methylphenyl)-N-ethyl-N-methylformimidamide] | > 75 | > 80 | > 80 | > 75 | > 80 | > 70 | 75 |
| CCN(C)C=Nc1cc(C)c(Cc2cc(C)cc(F)c2)cc1C [Compound 200, N-ethyl-N′-(4-(3-fluoro-5-methylbenzyl)-2,5-dimethylphenyl)-N-methylformimidamide] | > 75 | > 80 | > 80 | > 75 | > 80 | > 70 | 75 |
| CCN(C)C=Nc1cc(C)c(Cc2ccc(C(F)(F)F)cc2F)cc1C [Compound 201, N-ethyl-N′-(4-(2-fluoro-4-(trifluoromethyl)benzyl)-2,5-dimethylphenyl)-N-methylformimidamide] | > 75 | > 80 | > 80 | > 75 | > 80 | > 70 | 75 |
